Assay results: patent US10392368B2, “Pyrazolo and triazolo bicyclic compounds as JAK kinase inhibitors” (THERAVANCE BIOPHARMA R&D IP, LLC, priority 2017, dated 2019)
Like-named read-outs stand apart in the source and are kept apart here.

Columns and labels:
[1] = target: T1, JAK1 (Homo sapiens, UniProt P23458); experiment: Biochemical JAK1 kinase assay (LanthaScreen); settings: for Ki: read-out: JAK 1 (pKi) (converted)
T1 construct: GST; purchased Life Technologies
Outline: (§1)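 Values are pKi, calculated by Cheng-Prusoff from IC50 obtained by robust 4-parameter fitting of percent inhibition. The kinase reaction used GFP-STAT1 peptide in HEPES pH 7.5 buffer with MgCl2, EGTA and Brij-35, ATP-initiated after compound pre-incubation, 1 h at ambient temperature.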

[2] = target: T2, JAK2 (Homo sapiens, UniProt O60674); experiment: Biochemical JAK2 kinase assay (LanthaScreen); settings: for Ki: read-out: JAK 2 (pKi) (converted)
T2 construct: GST; purchased Life Technologies
Outline: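 GST-tagged recombinant JAK2 pre-incubated 1 h at ambient temperature with compound and GFP-STAT1 peptide in HEPES pH 7.5/MgCl2 buffer, then ATP added for a 1 h reaction with 1% DMSO. TR-FRET read after EDTA and Tb-anti-pSTAT1 (pTyr701) addition; IC50 from 4-parameter fit, converted to pKi by Cheng-Prusoff.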

[3] = target: T3, Tyk2 (Homo sapiens, UniProt P29597); experiment: Biochemical Tyk2 kinase assay (LanthaScreen); settings: for Ki: read-out: Tyk 2 (pKi) (converted)
T3 construct: GST; purchased Life Technologies
Outline: as §1

[4] = test system: IL-2 stimulated pSTAT5 in Tall-1 T cells; experiment: Cellular JAK3 potency assay: inhibition of IL-2 stimulated pSTAT5 in Tall-1 T cells; assay type: cell-based, human; settings: for IC50: Homo sapiens, read-out: Tall-1 (pIC50) (converted)
Outline: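 In human Tall-1 T cells, IL-2 (300 ng/ml final, 30 min) drives STAT5 phosphorylation after a 1 h compound pretreatment. Lysates are assayed for pSTAT5 by AlphaLisa, and IC50 derived from signal versus concentration is expressed as pIC50.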

[5] = target: T4, JAK3 (Homo sapiens, UniProt P52333); experiment: Biochemical JAK3 kinase assay (LanthaScreen); set-up: GST; purchased Life Technologies; settings: for Ki: read-out: JAK 3 (pKi) (converted)
T4 sequence (P52333 1-1124): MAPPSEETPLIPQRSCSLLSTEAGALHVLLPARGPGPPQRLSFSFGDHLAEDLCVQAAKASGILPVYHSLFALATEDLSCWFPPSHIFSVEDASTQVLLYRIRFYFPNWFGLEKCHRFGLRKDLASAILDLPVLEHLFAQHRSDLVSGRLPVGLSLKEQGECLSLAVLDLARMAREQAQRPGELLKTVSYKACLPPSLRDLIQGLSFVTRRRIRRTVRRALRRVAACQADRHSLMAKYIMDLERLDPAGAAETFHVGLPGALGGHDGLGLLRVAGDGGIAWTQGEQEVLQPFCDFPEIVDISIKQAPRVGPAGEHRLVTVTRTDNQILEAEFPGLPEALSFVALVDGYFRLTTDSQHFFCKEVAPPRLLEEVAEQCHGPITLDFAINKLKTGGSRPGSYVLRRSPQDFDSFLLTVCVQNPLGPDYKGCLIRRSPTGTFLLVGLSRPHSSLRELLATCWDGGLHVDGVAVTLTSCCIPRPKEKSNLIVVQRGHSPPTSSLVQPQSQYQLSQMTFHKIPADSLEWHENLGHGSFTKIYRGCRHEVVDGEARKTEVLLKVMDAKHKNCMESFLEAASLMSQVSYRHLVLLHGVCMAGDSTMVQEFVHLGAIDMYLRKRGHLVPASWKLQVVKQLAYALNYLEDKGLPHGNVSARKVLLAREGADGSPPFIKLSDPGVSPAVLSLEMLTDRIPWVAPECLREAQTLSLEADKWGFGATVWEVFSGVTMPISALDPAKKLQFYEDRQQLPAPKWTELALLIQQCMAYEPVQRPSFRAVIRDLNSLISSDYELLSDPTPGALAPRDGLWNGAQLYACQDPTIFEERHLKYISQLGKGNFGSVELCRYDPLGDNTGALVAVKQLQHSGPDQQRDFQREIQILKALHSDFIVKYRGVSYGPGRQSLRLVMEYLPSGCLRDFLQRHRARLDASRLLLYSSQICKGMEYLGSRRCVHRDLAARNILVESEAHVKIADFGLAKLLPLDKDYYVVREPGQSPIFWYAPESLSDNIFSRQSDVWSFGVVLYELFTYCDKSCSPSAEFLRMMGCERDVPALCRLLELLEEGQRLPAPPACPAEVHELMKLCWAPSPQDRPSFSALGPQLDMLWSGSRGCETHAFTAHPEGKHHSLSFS
Outline: as §1

[6] = TALL-1, IL-2 stimulated pSTAT5 in Tall-1 T cells
[7] = selectivity: difference of pKi JAK3 and pKi JAK1
[8] = TALL-1, IL-2 stimulated pSTAT5, Tall-1 T cells
[9] = selectivity JAK3 over JAK1, difference of pKi
[10] = IL-2 stimulated pSTAT5 in Tall-1 T cells
[11] = IL-2 stimulated pSTAT5, Tall-1 T cells

T3 sequence (P29597 whole entry): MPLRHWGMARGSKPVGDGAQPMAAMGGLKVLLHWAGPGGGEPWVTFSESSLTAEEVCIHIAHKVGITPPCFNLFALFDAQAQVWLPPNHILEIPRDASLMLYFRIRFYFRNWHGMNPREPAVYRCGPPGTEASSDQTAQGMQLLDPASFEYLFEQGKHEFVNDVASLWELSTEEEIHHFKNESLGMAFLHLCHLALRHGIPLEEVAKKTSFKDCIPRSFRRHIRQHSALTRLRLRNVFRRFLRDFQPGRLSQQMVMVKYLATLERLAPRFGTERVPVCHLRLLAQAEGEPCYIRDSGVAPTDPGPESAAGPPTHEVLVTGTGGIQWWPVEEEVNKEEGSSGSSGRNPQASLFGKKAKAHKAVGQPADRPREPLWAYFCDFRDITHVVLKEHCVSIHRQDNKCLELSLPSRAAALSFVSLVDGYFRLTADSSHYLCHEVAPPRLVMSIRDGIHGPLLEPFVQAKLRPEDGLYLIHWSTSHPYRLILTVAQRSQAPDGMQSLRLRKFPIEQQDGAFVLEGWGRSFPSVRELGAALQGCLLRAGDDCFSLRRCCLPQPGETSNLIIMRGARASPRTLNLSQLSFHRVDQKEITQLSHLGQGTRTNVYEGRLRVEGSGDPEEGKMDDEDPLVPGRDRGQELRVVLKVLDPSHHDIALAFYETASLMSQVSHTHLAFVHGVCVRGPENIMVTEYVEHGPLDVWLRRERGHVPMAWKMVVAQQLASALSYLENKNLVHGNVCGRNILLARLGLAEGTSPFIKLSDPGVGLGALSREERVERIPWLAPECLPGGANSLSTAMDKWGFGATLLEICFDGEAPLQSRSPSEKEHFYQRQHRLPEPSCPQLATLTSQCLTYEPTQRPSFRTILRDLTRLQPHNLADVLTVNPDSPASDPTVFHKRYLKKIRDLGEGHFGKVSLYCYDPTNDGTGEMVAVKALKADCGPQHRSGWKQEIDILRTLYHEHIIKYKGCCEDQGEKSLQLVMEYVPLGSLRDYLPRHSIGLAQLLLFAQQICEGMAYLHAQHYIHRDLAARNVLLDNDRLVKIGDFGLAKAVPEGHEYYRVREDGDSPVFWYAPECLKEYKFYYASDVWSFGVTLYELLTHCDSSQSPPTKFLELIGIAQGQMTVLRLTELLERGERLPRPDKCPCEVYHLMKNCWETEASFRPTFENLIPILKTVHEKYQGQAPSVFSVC
T2 sequence (O60674 whole entry): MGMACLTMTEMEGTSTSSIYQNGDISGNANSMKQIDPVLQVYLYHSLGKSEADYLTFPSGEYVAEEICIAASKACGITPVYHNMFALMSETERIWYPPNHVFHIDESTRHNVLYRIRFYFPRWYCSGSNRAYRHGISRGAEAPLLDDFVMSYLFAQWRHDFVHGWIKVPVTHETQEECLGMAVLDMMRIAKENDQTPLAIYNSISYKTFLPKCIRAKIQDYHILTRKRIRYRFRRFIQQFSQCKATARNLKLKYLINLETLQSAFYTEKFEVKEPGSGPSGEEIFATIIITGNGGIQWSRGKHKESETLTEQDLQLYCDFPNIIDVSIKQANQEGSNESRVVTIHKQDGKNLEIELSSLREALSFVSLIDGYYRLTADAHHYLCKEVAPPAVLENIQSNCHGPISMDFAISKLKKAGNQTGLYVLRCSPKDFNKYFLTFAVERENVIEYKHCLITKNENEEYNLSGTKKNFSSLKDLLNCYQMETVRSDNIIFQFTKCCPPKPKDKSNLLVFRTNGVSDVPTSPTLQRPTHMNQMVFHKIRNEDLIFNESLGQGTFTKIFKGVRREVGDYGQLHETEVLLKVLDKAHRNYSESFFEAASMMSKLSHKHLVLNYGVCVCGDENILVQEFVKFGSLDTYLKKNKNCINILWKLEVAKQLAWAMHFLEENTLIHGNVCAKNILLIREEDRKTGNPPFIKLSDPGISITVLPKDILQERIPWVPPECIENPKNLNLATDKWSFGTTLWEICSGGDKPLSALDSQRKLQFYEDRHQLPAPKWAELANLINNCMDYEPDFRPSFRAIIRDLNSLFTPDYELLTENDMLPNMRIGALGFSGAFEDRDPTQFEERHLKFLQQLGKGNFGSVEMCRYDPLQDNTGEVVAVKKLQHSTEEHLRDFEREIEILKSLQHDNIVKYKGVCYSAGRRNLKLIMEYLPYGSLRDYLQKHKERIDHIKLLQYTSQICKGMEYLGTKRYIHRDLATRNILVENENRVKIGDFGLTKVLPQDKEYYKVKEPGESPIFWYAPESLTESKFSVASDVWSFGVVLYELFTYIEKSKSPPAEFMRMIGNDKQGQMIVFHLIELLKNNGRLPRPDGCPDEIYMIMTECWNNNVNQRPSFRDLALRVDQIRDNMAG
T1 sequence (P23458 whole entry): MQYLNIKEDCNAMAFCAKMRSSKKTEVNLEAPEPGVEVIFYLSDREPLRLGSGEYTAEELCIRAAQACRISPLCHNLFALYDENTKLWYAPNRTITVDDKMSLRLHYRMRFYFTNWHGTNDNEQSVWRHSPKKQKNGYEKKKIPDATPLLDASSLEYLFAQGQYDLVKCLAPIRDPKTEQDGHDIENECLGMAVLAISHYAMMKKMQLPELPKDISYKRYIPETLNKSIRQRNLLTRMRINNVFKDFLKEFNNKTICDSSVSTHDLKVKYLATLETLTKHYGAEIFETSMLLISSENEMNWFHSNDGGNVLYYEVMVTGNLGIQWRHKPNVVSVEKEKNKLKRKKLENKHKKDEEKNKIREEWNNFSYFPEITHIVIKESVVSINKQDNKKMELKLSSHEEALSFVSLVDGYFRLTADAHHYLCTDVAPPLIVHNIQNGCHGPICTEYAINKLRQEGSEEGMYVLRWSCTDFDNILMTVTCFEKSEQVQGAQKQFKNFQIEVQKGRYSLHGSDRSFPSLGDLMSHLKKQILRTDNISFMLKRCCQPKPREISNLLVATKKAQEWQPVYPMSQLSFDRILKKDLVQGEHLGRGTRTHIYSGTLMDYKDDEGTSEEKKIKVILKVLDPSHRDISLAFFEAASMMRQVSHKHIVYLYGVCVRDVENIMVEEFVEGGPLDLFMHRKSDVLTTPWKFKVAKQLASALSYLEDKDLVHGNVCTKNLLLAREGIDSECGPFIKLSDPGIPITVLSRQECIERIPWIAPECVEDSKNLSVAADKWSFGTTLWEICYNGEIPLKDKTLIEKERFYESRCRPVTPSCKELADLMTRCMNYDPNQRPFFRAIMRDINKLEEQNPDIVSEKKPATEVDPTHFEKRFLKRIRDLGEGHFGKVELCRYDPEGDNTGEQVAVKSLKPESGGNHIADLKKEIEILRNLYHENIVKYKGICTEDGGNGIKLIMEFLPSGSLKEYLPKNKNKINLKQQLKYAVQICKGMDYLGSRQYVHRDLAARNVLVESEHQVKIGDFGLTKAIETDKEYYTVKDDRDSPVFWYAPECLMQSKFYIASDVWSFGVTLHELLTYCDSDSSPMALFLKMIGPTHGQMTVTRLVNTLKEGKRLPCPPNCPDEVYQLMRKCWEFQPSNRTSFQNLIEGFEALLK

Structure (SMILES) | Ki [1] [nM] | Ki [2] [nM] | Ki [3] [nM] | IC50 [4, 6] [nM] | Ki [5] [nM] | JAK3 (pKi)-JAK1 (pKi) [5, 7] | IC50 [4, 8] [nM] | JAK3 (pKi)-JAK1 (pKi) [5, 9] | JAK 1 (pKi) [1] | JAK 2 (pKi) [2] | Tyk 2 (pKi) [3] | Tall-1 (pIC50) [4, 10] | JAK 3 (pKi) [5] | Tall-1 (pIC50) [4, 11]
C=CC(=O)N1CC[C@H](Sc2cc(-c3ccc(O)cc3)cc3[nH]ncc23)C1 [Compound 12, (S)-1-(3-((6-(4-hydroxyphenyl)-1H-indazol-4-yl)thio)pyrrolidin-1-yl)prop-2-en-1-one] | > 100 | > 100 | > 100 | 31.6 to 200 | 0.1 to 1 | B (a value of 2.3 to 3) | – | – | – | – | – | – | – | –
C=CC(=O)N1CCC(COc2cc(-c3ccc(O)cc3)cc3[nH]ncc23)CC1 [Compound 12-27] | > 100 | 10 to 100 | > 100 | – | < 0.1 | – | < 31.6 | A (a value of 3 or above) | – | – | – | – | – | –
CN(C)C/C=C/C(=O)N1CCSC[C@@H]1C(=O)Nc1cc(-c2ccc(O)cc2)cc2[nH]ncc12 [Compound 12-65] | > 100 | > 100 | > 100 | – | 0.1 to 1 | – | 200 to 1000 | A (a value of 3 or above) | – | – | – | – | – | –
C=CC(=O)N1CCC(Cc2cc(-c3ccc(O)cc3)cc3[nH]ncc23)CC1 [Compound 14, 1-(4-((6-(4-hydroxyphenyl)-1H-indazol-4-yl)methyl)piperidin-1-yl)prop-2-en-1-one] | > 100 | > 100 | > 100 | 31.6 to 200 | 0.1 to 1 | A (a value of 3 or above) | – | – | – | – | – | – | – | –
CN(C)C/C=C/C(=O)N1CC[C@H](COc2cc(-c3ccc(O)c(Cl)c3)cc3[nH]ncc23)C1 [Compound 2-2] | – | – | – | – | – | A (a value of 3 or above) | – | – | E (a pKi value of 7 or below (Ki of 100 nM or above)) | D (a pKi value between 7 and 8 (Ki between 100 nM and 10 nM)) | E (a pKi value of 7 or below (Ki of 100 nM or above)) | B (a pIC50 value between 6.7 (included) and 7.5 (IC50 between 200 nM and 32 nM)) | B (a pKi value between 9 and 10 (Ki between 1 nM and 0.1 nM)) | –
C=CC(=O)N1CCCC(Oc2cc(-c3ccc(O)cc3)cc3[nH]ncc23)C1 (stereo not drawn) [Compound 8-1] | – | – | – | – | – | – | – | B (a value of 2.3 to 3) | E (a pKi value of 7 or below (Ki of 100 nM or above)) | D (a pKi value between 7 and 8 (Ki between 100 nM and 10 nM)) | E (a pKi value of 7 or below (Ki of 100 nM or above)) | – | B (a pKi value between 9 and 10 (Ki between 1 nM and 0.1 nM)) | A (a pIC50 value≥7.5 (IC50≤32 nM))
C=CC(=O)N1CC[C@H](Oc2cc(-c3ccc(O)cc3)cc3[nH]ncc23)C1 [Compound 1-2] | > 100 | 10 to 100 | > 100 | < 31.6 | < 0.1 | A (a value of 3 or above) | – | – | – | – | – | – | – | –
C=CC(=O)N1CC(C#N)(COc2nc(-c3ccc(O)c(F)c3)cc3[nH]ncc23)C1 [Compound 3-108] | – | – | – | – | – | A (a value of 3 or above) | – | – | E (a pKi value of 7 or below (Ki of 100 nM or above)) | D (a pKi value between 7 and 8 (Ki between 100 nM and 10 nM)) | E (a pKi value of 7 or below (Ki of 100 nM or above)) | A (a pIC50 value≥7.5 (IC50≤32 nM)) | A (a pKi value≥10 (Ki≤0.1 nM)) | –
C=CC(=O)N1CC(COc2cc(-c3ccc(O)c(Cl)c3)nc3[nH]ncc23)C1 [Compound 3-86] | > 100 | > 100 | > 100 | 31.6 to 200 | < 0.1 | A (a value of 3 or above) | – | – | – | – | – | – | – | –
CN(C)C/C=C/C(=O)N1CC(Oc2cc(-c3ccc(O)c(F)c3)cc3[nH]ncc23)(C(F)F)C1 [Compound 5-17] | – | – | – | – | – | A (a value of 3 or above) | – | – | E (a pKi value of 7 or below (Ki of 100 nM or above)) | E (a pKi value of 7 or below (Ki of 100 nM or above)) | E (a pKi value of 7 or below (Ki of 100 nM or above)) | A (a pIC50 value≥7.5 (IC50≤32 nM)) | B (a pKi value between 9 and 10 (Ki between 1 nM and 0.1 nM)) | –
C=CC(=O)N1CC(OCc2cc(-c3ccc(O)c(Cl)c3)cc3[nH]ncc23)C1 [Compound 16-2] | – | – | – | – | – | – | – | A (a value of 3 or above) | E (a pKi value of 7 or below (Ki of 100 nM or above)) | E (a pKi value of 7 or below (Ki of 100 nM or above)) | E (a pKi value of 7 or below (Ki of 100 nM or above)) | – | A (a pKi value≥10 (Ki≤0.1 nM)) | A (a pIC50 value≥7.5 (IC50≤32 nM))
C=CC(=O)N1CC[C@H](Oc2cc(-c3ccc(O)c(F)c3)cc3[nH]ncc23)C1 [Compound 1-5] | > 100 | 10 to 100 | > 100 | < 31.6 | < 0.1 | A (a value of 3 or above) | – | – | – | – | – | – | – | –
COCCN(C)C/C=C/C(=O)N1CC(COc2cc(-c3ccc(O)cc3)cc3[nH]ncc23)C1 [Compound 3-119] | > 100 | 10 to 100 | > 100 | 31.6 to 200 | < 0.1 | B (a value of 2.3 to 3) | – | – | – | – | – | – | – | –
C=CC(=O)N1CC(C#N)(COc2nc(-c3ccc(O)c(Cl)c3)cc3[nH]ncc23)C1 [Compound 3-107] | – | – | – | – | – | A (a value of 3 or above) | – | – | E (a pKi value of 7 or below (Ki of 100 nM or above)) | E (a pKi value of 7 or below (Ki of 100 nM or above)) | E (a pKi value of 7 or below (Ki of 100 nM or above)) | A (a pIC50 value≥7.5 (IC50≤32 nM)) | A (a pKi value≥10 (Ki≤0.1 nM)) | –
